Laboratory results: BigSolDB 2.1

Nc1c([N+](=O)[O-])c2no[n+]([O-])c2c2no[n+]([O-])c12
solubility (mole fraction)
Details	288.15 K	293.15 K	298.15 K	303.15 K	308.15 K	313.15 K	318.15 K	323.15 K	328.15 K	333.15 K
in 1,2-dichloroethane	2.98e-05	3.64e-05	4.41e-05	5.31e-05	6.32e-05	7.49e-05	8.9e-05	0.000105	0.000122	0.000142
in DMF	0.00618	0.00747	0.00896	0.0107	0.0126	0.0149	0.0175	0.0204	0.0236	0.0273
in DMSO	–	0.0118	0.0138	0.0161	0.0187	0.0217	0.0249	0.0286	0.0327	0.0373
in NMP	0.00799	0.00948	0.0112	0.0131	0.0153	0.0178	0.0206	0.0237	0.0272	0.031
in acetic acid	–	7.86e-05	9.36e-05	0.000112	0.000131	0.000154	0.000178	0.000206	0.000237	0.000271
in acetone	0.000797	0.00087	0.000968	0.00109	0.00123	0.00137	0.00154	0.00174	–	–
in acetonitrile	0.000322	0.000374	0.000434	0.000497	0.00057	0.000654	0.000744	0.000845	0.000956	0.00108
in cyclohexanone	0.0018	0.00198	0.00218	0.0024	0.00266	0.00295	0.00328	0.00366	0.00409	0.00457
in dichloromethane	1.37e-05	1.73e-05	2.15e-05	2.68e-05	3.31e-05	–	–	–	–	–
in ethanol	6.85e-06	8.94e-06	1.18e-05	1.52e-05	1.95e-05	2.47e-05	3.14e-05	3.94e-05	4.92e-05	6.02e-05
in ethyl acetate	0.000211	0.000244	0.00028	0.000321	0.000367	0.000419	0.000475	0.000536	0.000605	0.000681
in methanol	1.44e-05	1.88e-05	2.42e-05	3.14e-05	4.01e-05	5.01e-05	6.33e-05	7.91e-05	9.73e-05	0.000121
in o-xylene	2.4e-05	3.15e-05	4.14e-05	5.34e-05	6.87e-05	8.74e-05	0.000109	0.000137	0.000169	0.000208
in propionic acid	1.94e-05	2.45e-05	3.15e-05	3.97e-05	4.97e-05	6.16e-05	7.63e-05	9.37e-05	0.000114	0.00014
in toluene	1.03e-05	1.34e-05	1.84e-05	2.45e-05	3.26e-05	4.29e-05	5.63e-05	7.28e-05	9.4e-05	0.00012
